Legend:
Escherichia coli TI41 = format: cell-based; conditions: Addition of 20 mg/l of thiaisoleucine, 30° C., 48 hours; no addition = 100
Escherichia coli TI139 = format: cell-based; conditions: Addition of 20 mg/l of thiaisoleucine, 30° C., 48 hours; no addition = 100
Escherichia coli JM101 = format: cell-based; conditions: Addition of 20 mg/l of thiaisoleucine, 30° C., 48 hours; no addition = 100
[1] = test system: recombinant Bombyx mori nuclear polyhedrosis viruses rBNVγ; format: cell-based, Bombyx mori nuclear polyhedrosis virus; conditions: pH 3.5

Molecule	Relative degree of growth (Escherichia coli TI41)	Relative degree of growth (Escherichia coli TI139)	Relative degree of growth (Escherichia coli JM101)	Amount of infectious viruses [1]
thiaisoleucine	95.2%	106.1%	17.1%	
CC(C)(C)CC(C)(C)c1ccc(OCCOCC[N+](C)(C)Cc2ccccc2)cc1 [benzethonium chloride]				Not detected

From patent US6391296B1 (priority 1997, dated 2002)
